molecular target: T1, Cholecystokinin receptor type A (Rattus norvegicus, UniProt P30551); assay: Binding affinity against cholecystokinin type A receptor of rat pancreas
T1 sequence (P30551 whole entry): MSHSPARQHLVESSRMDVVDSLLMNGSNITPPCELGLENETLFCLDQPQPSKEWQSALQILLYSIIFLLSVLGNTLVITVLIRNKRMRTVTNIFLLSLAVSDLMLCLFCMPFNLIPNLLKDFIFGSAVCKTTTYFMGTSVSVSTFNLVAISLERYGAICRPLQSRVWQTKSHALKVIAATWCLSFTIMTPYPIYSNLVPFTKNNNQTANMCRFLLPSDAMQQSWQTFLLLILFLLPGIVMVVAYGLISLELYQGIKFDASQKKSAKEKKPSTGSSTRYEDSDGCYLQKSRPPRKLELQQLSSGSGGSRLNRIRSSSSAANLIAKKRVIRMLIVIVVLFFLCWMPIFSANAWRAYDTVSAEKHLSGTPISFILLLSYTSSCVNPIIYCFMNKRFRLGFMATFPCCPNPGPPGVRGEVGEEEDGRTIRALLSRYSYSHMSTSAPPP

| Structure (SMILES) | IC50 |
| --- | --- |
| CN1C(=O)[C@@H](NC(=O)c2ccc(Cl)cc2)N=C(c2ccccc2F)c2ccccc21 | 2.88 nM |
| CN1C(=O)[C@@H](NC(=O)c2ccc(Br)cc2)N=C(c2ccccc2)c2ccccc21 | 2.51 nM |
| O=C(NC1N=C(c2ccccc2)c2ccccc2NC1=O)c1cc2ccccc2[nH]1 (stereo not drawn) | 4.57 nM |
| O=C(NC1N=C(c2ccccc2F)c2ccccc2NC1=O)c1cc2cc(Cl)ccc2[nH]1 (stereo not drawn) | 100 nM |
| O=C(NC1N=C(c2ccccc2)c2ccccc2NC1=O)c1ccc(O)cc1 (stereo not drawn) | 1780 nM |
| CN1C(=O)C(NC(=O)c2ccc(C#N)cc2)N=C(c2ccccc2F)c2ccccc21 (stereo not drawn) | 42.7 nM |
| CC1C(C(=O)NC2N=C(c3ccccc3F)c3ccccc3NC2=O)=Cc2ccccc21 (stereo not drawn) | 21.9 nM |
| O=C(CNc1ccccc1)NC1N=C(c2ccccc2F)c2ccccc2NC1=O (stereo not drawn) | 89.1 nM |
| CN1C(=O)C(NC(=O)c2ccccc2I)N=C(c2ccccc2F)c2ccccc21 (stereo not drawn) | 794 nM |
| CN1C(=O)C(NC(=O)c2ccc(Br)cc2)N=C(c2ccccc2F)c2ccccc21 (stereo not drawn) | 0.794 nM |
| CN1C(=O)C(NC(=O)c2ccc(I)cc2)N=C(c2ccccc2F)c2ccccc21 (stereo not drawn) | 0.794 nM |
| CN1C(=O)C(NC(=O)c2ccc(C(F)(F)F)cc2)N=C(c2ccccc2)c2ccccc21 (stereo not drawn) | 1.29 nM |
| CN1C(=O)C(NC(=O)c2cccc(Br)c2)N=C(c2ccccc2F)c2ccccc21 (stereo not drawn) | 3.47 nM |

— ChEMBL document CHEMBL1127379, “Three-dimensional molecular shape analysis-quantitative structure-activity relationship of a series of cholecystokinin-A receptor antagonists” (J Med Chem, 1994)
